These results are taken from article PMC5733301, “Antitubercular Nitroimidazoles Revisited: Synthesis and Activity of the Authentic 3-Nitro Isomer of Pretomanid” (ACS Medicinal Chemistry Letters, 2017).

In data set [1] the test system is M. tb (strain H37Rv). Put plainly: LORA, MIC against M. tb under hypoxic conditions (nonreplicating persistent bacteria). The format is cell-based, Mycobacterium tuberculosis. Conditions: vs 4 and 3.
The subject of data set [2] is M. tb (strain H37Rv). Put plainly: MABA, MIC against M. tb under aerobic conditions. In kind it is cell-based, Mycobacterium tuberculosis.
In a further data set the test system is VERO cells. In words: Cytotoxicity against mammalian cells (VERO), 72 h assay. In kind it is cell-based. The note with it: Chlorocebus sabaeus, cytotoxicity toward VERO cells.
The subject of data set [3] is M. tb (strain H37Rv). Also on record: method as in PMID 25781074. Conditions: aerobic, growth inhibition ≥90%, ref [15]; cited from earlier work.
The subject of data set [4] is M. tb (strain H37Rv). More on the design: method as in PMID 25781074. Conditions: hypoxic, growth inhibition ≥90%, ref [15]; cited from earlier work.
The subject of data set [5] is Mycobacterium tuberculosis (M. tb). More on the design: method as in PMID 19209889. Conditions: vs 4; ref [22]; cited from earlier work.
Data set [6] concerns M. tb. Also on record: method as in PMID 19209889. The note with it: ref [22]; cited from earlier work.
For data set [7], the system named is M. tb. Also on record: method as in PMID 19209889. The note with it: ref [22]; cited from earlier work. This is another data set of the same source.
Details of data set [8]: method as in PMID 23733467. Conditions: MDR-TB patients; ref [14]; cited from earlier work.

Values after ≈ are worked out from the molar mass of the structure shown.

With `Cc1cc(CO[C@@H]2COc3nc([N+](=O)[O-])cn3C2)ccc1OC(F)(F)F` [compound 9], the “better than both 4 and linezolid (3) in LORA” value with M. tb (strain H37Rv) [1] is listed as “about three-fold”. For the same compound, in the data set on M. tb (strain H37Rv) [2] (MABA, vs 4 and 6), the “more active than both 4 and moxifloxacin (6) in MABA” value is listed as “seven- to eight-fold”. Moreover, in the data set on M. tb (strain H37Rv) [2] (MABA, vs pretomanid), the “more potent than pretomanid in the aerobic assay” value is given as “eight-fold”.
Take `O=[N+]([O-])c1cn2c(n1)OC[C@@H](OCc1ccc(OC(F)(F)F)cc1)C2` [compound 4, pretomanid]: the half-inhibitory concentration (IC50) with VERO cells is above 128 µM. The “MIC MABA” value with M. tb (strain H37Rv) [3] is 0.50 ± 0.30 µM (≈ 0.18 µg/mL). The “MIC LORA” value in the data set with M. tb (strain H37Rv) [4] was 2.6 ± 1.4 µM (≈ 0.934 µg/mL).
As for `O=[N+]([O-])c1cn2c(n1)O[C@H](COCc1ccc(OC(F)(F)F)cc1)C2` [compound 20], the “less active than 4” value in [5] is 5- to 10 fold. Besides, the “aerobic MIC99” value in the data set with M. tb [6] was 4 to 8 µM. In addition, the “anaerobic MIC90” value with M. tb [7] is 31 µM.
Turning to `Cc1ncc([N+](=O)[O-])n1CCO` [MET, metronidazole], in data set [8], the “neurotoxicity in long-term use” value is recorded as “too neurotoxic for long-term use”.
In the case of `O=[N+]([O-])c1cnc2n1C[C@H](OCc1ccc(OC(F)(F)F)cc1)CO2` [compound 8], the “loss in activity in comparison to its 2-nitro isomer, 4” value in the data set on M. tb (strain H37Rv) [2] (M. tb MIC vs 4) was above 256 fold.
